Data from PubChem BioAssay (NCI).
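Dose response: 5 concentrations. Exposure: 48 h. Format: 96-well plates. Endpoint: linear interpolation; highest concentration if not reached. Here, GI50 denotes the concentration required for 50% inhibition of growth. TGI: total growth inhibition.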

Experiments:
Assay in all cases: DTP human tumour cell line panel, 48 h
EKVX NSCLC = test system: EKVX NSCLC
HOP-92 NSCLC = test system: HOP-92 NSCLC
LOX IMVI melanoma = test system: LOX IMVI melanoma
OVCAR-5 ovarian = test system: OVCAR-5 ovarian
CCRF-CEM leukemia = test system: CCRF-CEM leukemia
K-562 leukemia = test system: K-562 leukemia
NCI-H460 lung = test system: NCI-H460 lung
OVCAR-8 ovarian = test system: OVCAR-8 ovarian
SF-268 CNS = test system: SF-268 CNS
SN12C renal = test system: SN12C renal

Row | SMILES | GI50 (EKVX NSCLC) [µM] | TGI (EKVX NSCLC) [µM] | GI50 (HOP-92 NSCLC) [µM] | TGI (HOP-92 NSCLC) [µM] | GI50 (LOX IMVI melanoma) [µM] | TGI (LOX IMVI melanoma) [µM] | GI50 (OVCAR-5 ovarian) [µM] | TGI (OVCAR-5 ovarian) [µM] | TGI (CCRF-CEM leukemia) [µM] | TGI (K-562 leukemia) [µM] | TGI (NCI-H460 lung) [µM] | TGI (OVCAR-8 ovarian) [µM] | TGI (SF-268 CNS) [µM] | TGI (SN12C renal) [µM]
1 | OCCN1CCN(c2nc(Nc3ccc(-c4nc5ccccc5[nH]4)cc3)c3cn[nH]c3n2)CC1 | 1.73 | 3.26 | 1.41 | 2.91 | 1.63 | 3.13 | 1.83 | 3.26 |  |  |  |  |  | 
2 | Cc1n(-c2ccccc2)c2c([n+]1Cc1ccc([N+](=O)[O-])cc1)C(=O)c1ccccc1C2=O |  | 5.7 |  | 4.3 |  | 3.73 |  | 3.46 | 5.46 | 4.64 | 12.4 | 6.43 | 3.71 | 3.08
3 | Nc1nc(Sc2ccc([N+](=O)[O-])cn2)c2[nH]cnc2n1 |  | 50.2 |  | 38.7 |  | 17.1 |  | > 100 | > 41.5 | > 100 | > 64.9 | > 80.4 | > 100 | 29.4
4 | Cc1cc(=O)[nH]c(NN2C(Cl)C(=O)C2c2c(O)ccc3ccccc23)n1 (configuration not stated) |  | > 100 |  | 34.5 |  | 32.7 |  | > 100 | > 100 | > 100 | 29.6 | > 100 | > 100 | 69.5
5 | CCN(CC)CCOCC1CCCN2CCCCC12 (configuration not stated) |  | > 100 |  | > 100 |  | > 100 |  | > 100 | > 100 | > 100 | > 100 | > 100 | > 100 | > 100
6 | NS(=O)(=O)c1ccc(N=Nc2nc3[nH]cnc(=S)c3[nH]2)cc1 |  | > 100 |  | > 100 |  | 15.4 |  | > 60.2 | 4.21 | > 53.1 | 10.1 | > 100 | > 100 | > 40.1
7 | Cc1n(CC(C)C)c2c([n+]1CC(=O)c1ccc([N+](=O)[O-])cc1)C(=O)c1ccccc1C2=O |  |  |  | 0.128 |  | 0.131 |  | 0.0698 | 4.94 | 1.33 | 1.38 | 0.476 | < 0.0391 | 0.0107
